Test results published in patent US6765020B2, “Drugs for prevention and treatment of diseases caused by abnormalities in cartilage tissues” (Suntory Limited, priority 1995, dated 2004).

Columns and labels:
[1] = system: carrageenan-induced edema; details: rat models; cited from earlier work
[2] = system: chondrocytes of the rabbit knee joint; experiment: Synthesis of type II collagen by primary culture of chondrocytes (density of 116 kD band on electrophoresis); type: cell-based; details: for Activity of recovering the synthesis of type II collagen inhibited by arachidonic acid: fatty acid added at 300 μM
Description: Using the primary culture of chondrocytes of the rabbit knee joint, the effects of mead acid on the synthesis of type II collagen was compared with that of other fatty acids, in particular arachidonic acid. The mead acid used was 99% 5,8,11-cis-eicosatrienoic acid ethyl ester highly purified in the same manner as in Example 1, and for arachidonic acid, oleic acid and linoleic acid, the commercially available 99% ethyl esters thereof were used. Chondrocytes were prepared from the knee joints of 4-week old Japan white rabbits in accordance with the method of Suzuki and Shimomura [Shimomurra, Y., Yoneda, T., Suzuki, F. Osteogenesis by chondrocyte from growth cartilage of rat rib., Calcif. Tissue Int., 19:179-187, 1975]. The chondrocytes were plated at 10,000 cells/well of the 96-well plate (Iwaki Glass K.K.) in (MEM medium (50 μg/ml vitamin C, 1 ng/ml b-FGF were added) supplemented with 10% bovine calf serum, and pre-incubated for two days (5% CO2, 37° C.). The fatty acids were suspended in 0.0625% HCO-60 prior to use. As the pre-treatment with the fatty acids, the plates were divided into three groups and added thereto the solvent (0.0625% HCO-60) (group A), mead acid (the final concentration, 300 μM) (group B), and arachidonic acid (the final concentration, 300 μM) (group C), and then incubated for about 5 days while the culture medium and the fatty acids were replaced with fresh ones every two days.
Subsequently, the culture medium was replaced with αMEM medium (1 μg/ml transferrin, 1 μM dexamethasone, 2 μg/ml insulin, 50 μg/ml vitamin C) and each fatty acid (mead acid, arachidonic acid, oleic acid, and linoleic acid) was added thereto to a final concentration of 300 μM followed by incubation for seven days to synthesize extracellular matrix. The culture medium and each of the fatty acids were replaced every 2 days with freshly prepared ones. Pepsin (2 mg/ml) acetate solution was added to the plate at 200 μl/well and treated at 37° C. for 24 hours. The residue was recovered from each well and was centrifuged at 15,000 rpm for 10 minutes to form a precipitate, which was then washed once with tris-EDTA buffer (pH 8.0) and dissolved in 100 μl of the SDS sample buffer.
The amount of type II collagen synthesized was determined by electrophoresing 1/10 volume of each sample solution on the multigel 4/20 (Daiichi Kagaku K.K.) and measuring the density of the 116 kD band after staining with Cooumassie Brilliant Blue.

[3] = system: rabbit model of osteoarthritis; experiment: Range of motion (ROM) of the right knee joint in rabbit models of osteoarthritis prepared using arthrodesis by cast; type: in vivo; details: 0.6 ml of 1 mg/ml solution/joint, right articular cavity twice per week for five weeks; solvent group 70%
Description: Models of osteoarthritis were prepared using arthrodesis by cast. The animals used were 12-week old male rabbits (Kbl: NZW, Kitayama Labesu K. K.). Under anesthesia by intramuscular administration of 2 mg/kg of xylazine hydrochloride (Selactal, Bayer A. G.) and 50 mg/kg of ketamine hydrochloride (Ketalar 50 for animals, Sankyo K.K.) (hereinafter referred to as “under anesthesia”), hair was cut off the right hind leg. Then after the region from the upper thigh to the toe was covered with the stockinette and cast pad (3M Medicine K.K.), the knee joint was fixed for three weeks at a stretched and bent position by casting tape (3M Medicine K.K.). […]
In accordance with Example 2, models of osteoarthritis of the knee were prepared using arthrodesis by cast and were divided into three groups of five animals per group so that the average weight and the range of motion of joints of each group became uniform. […] In accordance with Example 2, dosage samples were administered in the right articular cavity twice per week for five weeks and ROM of the joint of the right knee was measured.

[4] = group C pretreated with arachidonic acid 300 μM (FIG. 3, sample No. 11-15)

| SMILES | Activity of recovering the synthesis of type II collagen inhibited by arachidonic acid [2, 4] | ROM at week five after the start of administration [3] [%] | further results |
| --- | --- | --- | --- |
| CCCCCCCCC=CCC=CCC=CCCCC(=O)O [5,8,11-eicosatrienoic acid] | – | – | Anti-inflammatory effect on carrageenan-induced edema [1]: anti-inflammatory effect |
| CCCCC/C=C\C/C=C\C/C=C\C/C=C\CCCC(=O)O [arachidonic acid] | – | – | Effect of addition of fatty acid on synthesis of type II collagen ([2]; 300 μM, seven days, group A pretreated with solvent (FIG. 3, sample No. 1-5)): inhibited synthesis of type II collagen; Inhibition of type II collagen synthesis in group C pretreated with arachidonic acid ([2]; 300 μM, group C pretreated with arachidonic acid 300 μM (FIG. 3, sample No. 11-15)): more conspicuous |
| CCCCC/C=C\C/C=C\CCCCCCCC(=O)O [linoleic acid] | not observed | – | – |
| CCCCCCCC/C=C\CCCCCCCC(=O)O [oleic acid] | not observed | – | – |
| CCCCCCCCC=CC/C=C\CCCCC(=O)OCC [solution A, 6,9-cis-octadecadienoic acid ethyl ester] | – | 80.2 | – |
| CCCCCCCCC=CC/C=C\CCCCCCC(=O)OCC [solution B, 8,11-cis-eicosadienoic acid ethyl ester] | – | 83.6 | – |
